Patent publication US10227344B2, “CK2 inhibitors, compositions and methods thereof” (Polaris Pharmaceuticals, Inc., priority 2016, dated 2019)

Legend:
Type in all cases: cell-based
A549 = experiment: Cancer cell panel, cell viability (resazurin): NSCLC, A549; settings: 72 hours, labelled drug combined with Example 3
MCF7 = experiment: Cancer cell panel, cell viability (resazurin): Breast, MCF7; settings: 72 hours, labelled drug combined with Example 3
Experimental: (§1) Cells were plated in 96-well plates and treated for 72 hours with a serially diluted CK2 inhibitor or anti-cancer drug or their combination. The suspension cell lines were treated right after plating, while the adherent cells were allowed to attach overnight prior to the start of the treatment.
(§2) Cell viability was determined by adding resazurin to cell cultures and measuring fluorescence with a plate reader. Relative cell viability was calculated by dividing the cell viability signal from a test sample by that of a non-treated control. […] Bliss Independence and Highest Single Agent models were used to determine if there is synergy, additivity or antagonism between the CK2 inhibitor and an anti-cancer drug.

HL60 = experiment: Cancer cell panel, cell viability (resazurin): Leukemia, HL60; settings: 72 hours, labelled drug combined with Example 3
Experimental: as §1, §2

A2780 = experiment: Cancer cell panel, cell viability (resazurin): Ovarian, A2780; settings: 72 hours, labelled drug combined with Example 3
Panc-1 = experiment: Cancer cell panel, cell viability (resazurin): Pancreatic, Panc-1; settings: Panc-1 (Pancreatic), 72 hours; labelled drug combined with Example 3
Experimental: as §1, §2

LoVo = experiment: Cancer cell panel, cell viability (resazurin): Colon, LoVo; settings: 72 hours, labelled drug combined with Example 3
MOLT4 = experiment: Cancer cell panel, cell viability (resazurin): Leukemia, MOLT4; settings: 72 hours, labelled drug combined with Example 3
H2122 = experiment: Cancer cell panel, cell viability (resazurin): NSCLC, H2122; settings: 72 hours, labelled drug combined with Example 3
Experimental: as §1, §2

ZR-75-1 = experiment: Cancer cell panel, cell viability (resazurin): Breast, ZR-75-1; settings: ZR-75-1 (Breast), 72 hours; labelled drug combined with Example 3
Experimental: as §1, §2

Raji = experiment: Cancer cell panel, cell viability (resazurin): Burkitt's Lymphoma, Raji; settings: 72 hours, labelled drug combined with Example 3
Experimental: as §1, §2

H1975 = experiment: Cancer cell panel, cell viability (resazurin): NSCLC, H1975; settings: 72 hours, labelled drug combined with Example 3
Ramos = experiment: Cancer cell panel, cell viability (resazurin): Burkitt's Lymphoma, Ramos; settings: 72 hours, labelled drug combined with Example 3
Experimental: as §1, §2

U266 = experiment: Cancer cell panel, cell viability (resazurin): multiple myeloma, U266; settings: 72 hours, labelled drug combined with Example 3
Experimental: as §1, §2

WM-115 = experiment: Cancer cell panel, cell viability (resazurin): Melanoma, WM-115; settings: WM-115 (Melanoma), 72 hours; labelled drug combined with Example 3
OVCAR-3 = experiment: Cancer cell panel, cell viability (resazurin): Ovarian, OVCAR-3; settings: OVCAR-3 (Ovarian), 72 hours; labelled drug combined with Example 3
DLD-1 = experiment: Cancer cell panel, cell viability (resazurin): Colon, DLD-1; settings: DLD-1 (Colon), 72 hours; labelled drug combined with Example 3
RPMI8226 = experiment: Cancer cell panel, cell viability (resazurin): multiple myeloma, RPMI8226; settings: 72 hours, labelled drug combined with Example 3
T47D = experiment: Cancer cell panel, cell viability (resazurin): Breast, T47D; settings: 72 hours, labelled drug combined with Example 3
Experimental: as §1, §2

H1299 = experiment: Cancer cell panel, cell viability (resazurin): NSCLC, H1299; settings: 72 hours, labelled drug combined with Example 3
Experimental: as §1, §2

K562 = experiment: Cancer cell panel, cell viability (resazurin): Leukemia, K562; settings: 72 hours, labelled drug combined with Example 3
Colo205 = experiment: Cancer cell panel, cell viability (resazurin): Colon, Colo205; settings: 72 hours, labelled drug combined with Example 3
MDA-MB-231 = experiment: Cancer cell panel, cell viability (resazurin): Breast, MDA-MB-231; settings: MDA-MB-231 (Breast), 72 hours; labelled drug combined with Example 3
SkBr-3 = experiment: Cancer cell panel, cell viability (resazurin): Breast, SkBr-3; settings: SkBr-3 (Breast), 72 hours; labelled drug combined with Example 3
Experimental: as §1, §2

Caov-3 = experiment: Cancer cell panel, cell viability (resazurin): Ovarian, Caov-3; settings: Caov-3 (Ovarian), 72 hours; labelled drug combined with Example 3
SK-MEL-3 = experiment: Cancer cell panel, cell viability (resazurin): Melanoma, SK-MEL-3; settings: SK-MEL-3 (Melanoma), 72 hours; labelled drug combined with Example 3
MDA-MB-157 = experiment: Cancer cell panel, cell viability (resazurin): Breast, MDA-MB-157; settings: MDA-MB-157 (Breast), 72 hours; labelled drug combined with Example 3
SKOV-3 = experiment: Cancer cell panel, cell viability (resazurin): Ovarian, SKOV-3; settings: SKOV-3 (Ovarian), 72 hours; labelled drug combined with Example 3
Experimental: as §1, §2

SK-MEL-24 = experiment: Cancer cell panel, cell viability (resazurin): Melanoma, SK-MEL-24; settings: SK-MEL-24 (Melanoma), 72 hours; labelled drug combined with Example 3
H460 = experiment: Cancer cell panel, cell viability (resazurin): NSCLC, H460; settings: 72 hours, labelled drug combined with Example 3
Caki-1 = experiment: Cancer cell panel, cell viability (resazurin): Renal, Caki-1; settings: Caki-1 (Renal), 72 hours; labelled drug combined with Example 3
BxPC3 = experiment: Cancer cell panel, cell viability (resazurin): Pancreatic, BxPC3; settings: 72 hours, labelled drug combined with Example 3
HT29 = experiment: Cancer cell panel, cell viability (resazurin): Colon, HT29; settings: 72 hours, labelled drug combined with Example 3
H23 = experiment: Cancer cell panel, cell viability (resazurin): NSCLC, H23; settings: 72 hours, labelled drug combined with Example 3
ACHN = experiment: Cancer cell panel, cell viability (resazurin): Renal, ACHN; settings: 72 hours, labelled drug combined with Example 3
A375 = experiment: Cancer cell panel, cell viability (resazurin): Melanoma, A375; settings: 72 hours, labelled drug combined with Example 3
EOL-1 = experiment: Cancer cell panel, cell viability (resazurin): Leukemia, EOL-1; settings: EOL-1 (Leukemia), 72 hours; labelled drug combined with Example 3
BT-20 = experiment: Cancer cell panel, cell viability (resazurin): Breast, BT-20; settings: BT-20 (Breast), 72 hours; labelled drug combined with Example 3
Mia-Paca-2 = experiment: Cancer cell panel, cell viability (resazurin): Pancreatic, Mia-Paca-2; settings: Mia-Paca-2 (Pancreatic), 72 hours; labelled drug combined with Example 3
Experimental: as §1, §2

CCN(CC)CCNC(=O)c1c(C)[nH]c(/C=C2\C(=O)Nc3ccc(F)cc32)c1C [Sunitinib, sunitinib]
synergy, additivity or antagonism of the combination of Example 3 with the anti-cancer drug (A549): + + + (Synergy relative to each agent alone (CI = 0.4-0.74 by Bliss Independence Model)) | synergy, additivity or antagonism of the combination of Example 3 with the anti-cancer drug (MCF7): + (Additive relative to each agent alone (CI = 0.9-1 by Bliss Independence Model and <0.9 by Highest Single Agent Model)) | synergy, additivity or antagonism of the combination of Example 3 with the anti-cancer drug (HL60): + + (Slight synergy relative to each agent alone (CI = 0.75-0.9 by Bliss Independence Model)) | synergy, additivity or antagonism of the combination of Example 3 with the anti-cancer drug (A2780): + + + (Synergy relative to each agent alone (CI = 0.4-0.74 by Bliss Independence Model)) | synergy, additivity or antagonism of the combination of Example 3 with the anti-cancer drug (Panc-1): + + (Slight synergy relative to each agent alone (CI = 0.75-0.9 by Bliss Independence Model)) | synergy, additivity or antagonism of the combination of Example 3 with the anti-cancer drug (LoVo): + (Additive relative to each agent alone (CI = 0.9-1 by Bliss Independence Model and <0.9 by Highest Single Agent Model)) | synergy, additivity or antagonism of the combination of Example 3 with the anti-cancer drug (MOLT4): + (Additive relative to each agent alone (CI = 0.9-1 by Bliss Independence Model and <0.9 by Highest Single Agent Model)) | synergy, additivity or antagonism of the combination of Example 3 with the anti-cancer drug (H2122): + + (Slight synergy relative to each agent alone (CI = 0.75-0.9 by Bliss Independence Model)) | synergy, additivity or antagonism of the combination of Example 3 with the anti-cancer drug (ZR-75-1): + + (Slight synergy relative to each agent alone (CI = 0.75-0.9 by Bliss Independence Model)) | synergy, additivity or antagonism of the combination of Example 3 with the anti-cancer drug (Raji): + + (Slight synergy relative to each agent alone (CI = 0.75-0.9 by Bliss Independence Model)) | synergy, additivity or antagonism of the combination of Example 3 with the anti-cancer drug (H1975): + + (Slight synergy relative to each agent alone (CI = 0.75-0.9 by Bliss Independence Model)) | synergy, additivity or antagonism of the combination of Example 3 with the anti-cancer drug (Ramos): + + (Slight synergy relative to each agent alone (CI = 0.75-0.9 by Bliss Independence Model)) | synergy, additivity or antagonism of the combination of Example 3 with the anti-cancer drug (U266): + (Additive relative to each agent alone (CI = 0.9-1 by Bliss Independence Model and <0.9 by Highest Single Agent Model)) | synergy, additivity or antagonism of the combination of Example 3 with the anti-cancer drug (WM-115): + + (Slight synergy relative to each agent alone (CI = 0.75-0.9 by Bliss Independence Model)) | synergy, additivity or antagonism of the combination of Example 3 with the anti-cancer drug (OVCAR-3): − − (Antagonistic relative to each agent alone (CI = 1.2-1.49 by Highest Single Agent Model)) | synergy, additivity or antagonism of the combination of Example 3 with the anti-cancer drug (DLD-1): + + (Slight synergy relative to each agent alone (CI = 0.75-0.9 by Bliss Independence Model)) | synergy, additivity or antagonism of the combination of Example 3 with the anti-cancer drug (RPMI8226): + + + + (Strong synergy relative to each agent alone (CI < 0.4 by Bliss Independence Model)) | synergy, additivity or antagonism of the combination of Example 3 with the anti-cancer drug (T47D): + (Additive relative to each agent alone (CI = 0.9-1 by Bliss Independence Model and <0.9 by Highest Single Agent Model)) | synergy, additivity or antagonism of the combination of Example 3 with the anti-cancer drug (H1299): + (Additive relative to each agent alone (CI = 0.9-1 by Bliss Independence Model and <0.9 by Highest Single Agent Model)) | synergy, additivity or antagonism of the combination of Example 3 with the anti-cancer drug (K562): + + + (Synergy relative to each agent alone (CI = 0.4-0.74 by Bliss Independence Model)) | synergy, additivity or antagonism of the combination of Example 3 with the anti-cancer drug (Colo205): + + + + (Strong synergy relative to each agent alone (CI < 0.4 by Bliss Independence Model)) | synergy, additivity or antagonism of the combination of Example 3 with the anti-cancer drug (MDA-MB-231): + + (Slight synergy relative to each agent alone (CI = 0.75-0.9 by Bliss Independence Model)) | synergy, additivity or antagonism of the combination of Example 3 with the anti-cancer drug (SkBr-3): + + (Slight synergy relative to each agent alone (CI = 0.75-0.9 by Bliss Independence Model)) | synergy, additivity or antagonism of the combination of Example 3 with the anti-cancer drug (Caov-3): + (Additive relative to each agent alone (CI = 0.9-1 by Bliss Independence Model and <0.9 by Highest Single Agent Model)) | synergy, additivity or antagonism of the combination of Example 3 with the anti-cancer drug (SK-MEL-3): + (Additive relative to each agent alone (CI = 0.9-1 by Bliss Independence Model and <0.9 by Highest Single Agent Model)) | synergy, additivity or antagonism of the combination of Example 3 with the anti-cancer drug (MDA-MB-157): + + + (Synergy relative to each agent alone (CI = 0.4-0.74 by Bliss Independence Model)) | synergy, additivity or antagonism of the combination of Example 3 with the anti-cancer drug (SKOV-3): + (Additive relative to each agent alone (CI = 0.9-1 by Bliss Independence Model and <0.9 by Highest Single Agent Model)) | synergy, additivity or antagonism of the combination of Example 3 with the anti-cancer drug (SK-MEL-24): + + + (Synergy relative to each agent alone (CI = 0.4-0.74 by Bliss Independence Model)) | synergy, additivity or antagonism of the combination of Example 3 with the anti-cancer drug (H460): + + (Slight synergy relative to each agent alone (CI = 0.75-0.9 by Bliss Independence Model)) | synergy, additivity or antagonism of the combination of Example 3 with the anti-cancer drug (Caki-1): + (Additive relative to each agent alone (CI = 0.9-1 by Bliss Independence Model and <0.9 by Highest Single Agent Model)) | synergy, additivity or antagonism of the combination of Example 3 with the anti-cancer drug (BxPC3): + + + (Synergy relative to each agent alone (CI = 0.4-0.74 by Bliss Independence Model)) | synergy, additivity or antagonism of the combination of Example 3 with the anti-cancer drug (HT29): + (Additive relative to each agent alone (CI = 0.9-1 by Bliss Independence Model and <0.9 by Highest Single Agent Model)) | synergy, additivity or antagonism of the combination of Example 3 with the anti-cancer drug (H23): + + + (Synergy relative to each agent alone (CI = 0.4-0.74 by Bliss Independence Model)) | synergy, additivity or antagonism of the combination of Example 3 with the anti-cancer drug (ACHN): + (Additive relative to each agent alone (CI = 0.9-1 by Bliss Independence Model and <0.9 by Highest Single Agent Model)) | synergy, additivity or antagonism of the combination of Example 3 with the anti-cancer drug (A375): + + (Slight synergy relative to each agent alone (CI = 0.75-0.9 by Bliss Independence Model)) | synergy, additivity or antagonism of the combination of Example 3 with the anti-cancer drug (EOL-1): + + (Slight synergy relative to each agent alone (CI = 0.75-0.9 by Bliss Independence Model)) | synergy, additivity or antagonism of the combination of Example 3 with the anti-cancer drug (BT-20): + + (Slight synergy relative to each agent alone (CI = 0.75-0.9 by Bliss Independence Model)) | synergy, additivity or antagonism of the combination of Example 3 with the anti-cancer drug (Mia-Paca-2): + + (Slight synergy relative to each agent alone (CI = 0.75-0.9 by Bliss Independence Model))
